The numbers were not newly measured in US20070141150A1, “Pharmaceutical composition” (priority 2003, published 2007), which cites them from elsewhere.

Usually Hill coefficient stands for the slope factor of the fitted curve.

The conditions of the data set: interaction between propranolol and the polyanionic methacrylic acid copolymer.

Molecules are shown by their SMILES. Structures can show the parent of a compound that is named as a salt.

With `CC(C)NCC(O)COc1cccc2ccccc12` (stereo not shown) [propranolol, propranolol hydrochloride], the Hill coefficient is 1.5.
